Experimental data as given in paper PMC6804006, “Synthesis, Biological Activities and Docking Studies of Novel 4-(Arylaminomethyl)benzamide Derivatives as Potential Tyrosine Kinase Inhibitors” (Molecules, 2019).

Tests used:
EGFR = target: T1, EGFR (Homo sapiens, UniProt P00533); assay: ADP-Glo kinase inhibitory assay, EGFR; assay type: biochemical; conditions: for inhibition at 0.01 µM: read-out: % Inhibition at 10 nM, EGFR
T1 construct: purchased Promega
Method: (§1) We investigated the kinase selectivity of targeted compounds against eight receptor tyrosine kinases including EGFR (epidermal growth factor receptor), HER-2 and HER4 (human epidermal growth factor receptor), IGF1R (insulin like growth factor 1 receptor), InsR (gene insulin receptor), KDR (kinase insert domain receptor), and PDGFRa and PDGFRb (platelet-derived growth factor receptors). The assay was performed using the Kinase-Glo Plus luminescence kinase assay kit (TK-1+ADP-Glo™, Promega, San Diego, CA, USA). It measures kinase activity by quantitating the amount of ATP remaining in solution following a kinase reaction.
(§2) The assay was performed using a Kinase Selectivity Profiling System (TK-1+ADP-Glo™ Assay and TK-2+ADP-Glo™ Assay, Promega), where the kinase activity was measured by quantifying the amount of ADP produced during a kinase reaction. The assay is performed in two steps; firstly, after the kinase reaction, an equal volume of ADP-Glo™ Reagent is added to terminate the kinase reaction and deplete the remaining ATP. Secondly, the Kinase Detection Reagent is added to simultaneously convert ADP to ATP and allow the newly synthesized ATP to be measured using a luciferase/luciferin reaction. The luminescent signal generated is proportional to the ADP concentration produced and is correlated with kinase activity. Our compounds were diluted with kinase buffer (5% DMSO), and 1 μL of the dilution was added to a 5-μL reaction so that the final concentration of DMSO was 1% in all of reactions. All of the enzymatic reactions were conducted at 23 °C for 60 min. The 5-μL reaction mixture contained 1µL of the compound solution, 2µL of the enzyme solution, and 2 µL of kinase substrate. After the enzymatic reaction, 5 µL of ADP-Glo™ Reagent (Promega, USA) was added to each reaction, and the plate was incubated for 40 min at 23 °C. Then, 10 µL of Kinase Detection Reagent (Promega, USA) was added to each reaction, and the plate was incubated for 30 min at 23 °C. Luminescence signal was measured using an Infinite M 200 plate reader (Tecan, Switzerland).
(§3) Kinase activity assays were performed in duplicate at each concentration. The luminescence data were analyzed using the computer software, Magellan™. The difference between luminescence intensities in the absence of Kinase (Lut) and in the presence of Kinase (Luc) was defined as 100% activity (Lut − Luc).

HER-2 = target: T2, HER-2 (Homo sapiens, UniProt P04626); assay: ADP-Glo kinase inhibitory assay, HER-2; assay type: biochemical; conditions: for inhibition at 0.01 µM: read-out: % Inhibition at 10 nM, HER-2
T2 construct: purchased Promega
Method: as §1, §2, §3

HER-4 = target: T3, HER-4 (Homo sapiens, UniProt Q15303); assay: ADP-Glo kinase inhibitory assay, HER-4; assay type: biochemical; conditions: for inhibition at 0.01 µM: read-out: % Inhibition at 10 nM, HER-4; for inhibitory activity in relation to HER-4, in words: compared with imatinib
T3 construct: purchased Promega
Method: as §1, §2, §3

IGF1R = target: T4, IGF1R (Homo sapiens, UniProt P08069); assay: ADP-Glo kinase inhibitory assay, IGF1R; assay type: biochemical; conditions: for inhibition at 0.01 µM: read-out: % Inhibition at 10 nM, IGF1R
T4 construct: purchased Promega
Method: as §1, §2, §3

InsR = target: T5, InsR (Homo sapiens, UniProt P06213); assay: ADP-Glo kinase inhibitory assay, InsR; assay type: biochemical; conditions: for inhibition at 0.01 µM: read-out: % Inhibition at 10 nM, InsR
T5 construct: purchased Promega
Method: as §1, §2, §3

KDR (VEGFR2) = target: T6, KDR (VEGFR2) (Homo sapiens, UniProt P35968); assay: ADP-Glo kinase inhibitory assay, KDR; assay type: biochemical; conditions: for inhibition at 0.01 µM: 10 nM
T6 construct: purchased Promega
Method: as §1
Vascular endothelial growth factor receptor 2 (VEGFR2), also called kinase insert domain receptor (KDR), is a tyrosine kinase receptor for VEGFs that plays a central role in tumor angiogenesis; therefore, the inhibition of VEGFR2 is a promising therapeutic strategy for inhibiting angiogenesis and tumor growth.
as §2, §3

PDGFRa = target: T7, PDGFRa (Homo sapiens, UniProt P16234); assay: ADP-Glo kinase inhibitory assay, PDGFRa; assay type: biochemical; conditions: for inhibition at 0.01 µM: read-out: % Inhibition at 10 nM, PDGFRa
T7 construct: purchased Promega
Method: as §1, §2, §3

PDGFRb = target: T8, PDGFRb (Homo sapiens, UniProt P09619); assay: ADP-Glo kinase inhibitory assay, PDGFRb; assay type: biochemical; conditions: for inhibition at 0.01 µM: read-out: % Inhibition at 10 nM, PDGFRb
T8 construct: purchased Promega
Method: as §1, §2, §3

[1] = tested on: K-562 (chronic myelogenous leukemia); assay: MTT anti-proliferative assay, K-562; assay type: cell-based; conditions: Homo sapiens, K562, 48 h, 50% growth inhibition
Method: (§4) Each in vitro experiment was performed at least in triplicate, and the standard deviation of absorbance was less than 10% of the mean. For the in vitro assays, a stock solution (1% DMSO in the appropriate buffer with the tested compound diluted under sonication) was prepared from which several dilutions were made with the appropriate buffer.
(§5) Human cell lines were obtained from the Institute of Cytology, Russian Academy of Sciences. […] Cellular sensitivities to clofarabine and its lipid derivatives were measured with the MTT assay. Cells were plated in triplicate in 96-well plates (10^5 cells/well for suspended cell cultures and 5 × 10^3 cells/well for monolayer cultures); on the same day (suspended cell cultures) or on the following day (monolayer cultures), compounds were added at the appropriate dilutions. Plates were incubated under standard conditions for 48 h. Thereafter, 10 μL of MTT (Sigma) in phosphate-buffered saline (5 mg/mL) was added. The plates were incubated for an additional 4 h, and 150 μL of dimethyl sulfoxide (DMSO) was added to dissolve the formazan crystals. The optical density was read on a HALO MPR-95 Microplate Reader (Dynamica Scientific Ltd., Australia) at 570 nm. The antiproliferative effects were determined as degrees of inhibition of tumor cells (%).

[2] = tested on: HL-60 (promyelocytic leukemia); assay: MTT anti-proliferative assay, HL-60; assay type: cell-based, human; conditions: Homo sapiens, HL-60, 48 h, 50% growth inhibition
Method: as §4, §5

[3] = tested on: RPMI 1788 (B lymphocyte, human normal cells); assay: MTT assay on normal cells RPMI 1788; assay type: cell-based; conditions: MTT 48 h
Method: as §4
Human cell lines were obtained from the Institute of Cytology, Russian Academy of Sciences. The cell lines studied were maintained in RPMI 1640 medium (AppliChem, Darmstadt, Germany) supplemented with 20% (HL-60, RPMI 1788) fetal calf serum (HyClone, Cramlington, UK), in DMEM (A 549) and Eagle’s MEM (AppliChem) (MCF7, HeLa) with 10% fetal calf serum (HyClone). Cells were cultivated at 37 °C in a humidified atmosphere of 5% CO2. Cellular sensitivities to clofarabine and its lipid derivatives were measured with the MTT assay. Cells were plated in triplicate in 96-well plates (10^5 cells/well for suspended cell cultures and 5 × 10^3 cells/well for monolayer cultures); on the same day (suspended cell cultures) or on the following day (monolayer cultures), compounds were added at the appropriate dilutions. Plates were incubated under standard conditions for 48 h. Thereafter, 10 μL of MTT (Sigma) in phosphate-buffered saline (5 mg/mL) was added. The plates were incubated for an additional 4 h, and 150 μL of dimethyl sulfoxide (DMSO) was added to dissolve the formazan crystals. The optical density was read on a HALO MPR-95 Microplate Reader (Dynamica Scientific Ltd., Australia) at 570 nm. The antiproliferative effects were determined as degrees of inhibition of tumor cells (%).

T8 sequence (P09619 33-1106): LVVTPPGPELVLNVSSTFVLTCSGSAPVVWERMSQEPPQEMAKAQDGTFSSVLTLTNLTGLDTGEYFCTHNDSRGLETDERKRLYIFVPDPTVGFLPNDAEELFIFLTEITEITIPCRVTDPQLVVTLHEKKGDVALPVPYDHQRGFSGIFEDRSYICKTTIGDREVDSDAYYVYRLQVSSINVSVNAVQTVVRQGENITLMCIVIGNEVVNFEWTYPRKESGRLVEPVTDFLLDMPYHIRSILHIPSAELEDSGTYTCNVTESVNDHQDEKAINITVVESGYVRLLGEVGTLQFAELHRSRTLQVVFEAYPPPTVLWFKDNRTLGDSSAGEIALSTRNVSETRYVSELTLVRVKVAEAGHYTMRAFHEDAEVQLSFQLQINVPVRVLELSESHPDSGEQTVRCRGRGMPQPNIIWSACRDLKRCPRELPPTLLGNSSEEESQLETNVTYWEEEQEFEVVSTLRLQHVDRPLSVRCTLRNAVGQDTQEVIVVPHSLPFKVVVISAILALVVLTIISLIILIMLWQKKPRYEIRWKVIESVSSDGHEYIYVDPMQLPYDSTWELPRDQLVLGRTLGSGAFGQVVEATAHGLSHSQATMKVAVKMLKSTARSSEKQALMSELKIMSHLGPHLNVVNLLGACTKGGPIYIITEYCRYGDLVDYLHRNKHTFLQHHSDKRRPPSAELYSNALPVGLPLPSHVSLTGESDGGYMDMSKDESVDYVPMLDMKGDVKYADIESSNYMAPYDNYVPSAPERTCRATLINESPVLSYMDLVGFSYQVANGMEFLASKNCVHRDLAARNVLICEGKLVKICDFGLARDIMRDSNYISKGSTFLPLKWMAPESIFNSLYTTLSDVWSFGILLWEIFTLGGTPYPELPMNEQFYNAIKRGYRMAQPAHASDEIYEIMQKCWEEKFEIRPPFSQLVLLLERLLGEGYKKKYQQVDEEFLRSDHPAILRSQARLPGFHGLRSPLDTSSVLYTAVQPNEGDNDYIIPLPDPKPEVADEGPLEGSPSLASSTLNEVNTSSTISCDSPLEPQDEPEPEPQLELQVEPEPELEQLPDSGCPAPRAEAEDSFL
T4 sequence (P08069 31-1367): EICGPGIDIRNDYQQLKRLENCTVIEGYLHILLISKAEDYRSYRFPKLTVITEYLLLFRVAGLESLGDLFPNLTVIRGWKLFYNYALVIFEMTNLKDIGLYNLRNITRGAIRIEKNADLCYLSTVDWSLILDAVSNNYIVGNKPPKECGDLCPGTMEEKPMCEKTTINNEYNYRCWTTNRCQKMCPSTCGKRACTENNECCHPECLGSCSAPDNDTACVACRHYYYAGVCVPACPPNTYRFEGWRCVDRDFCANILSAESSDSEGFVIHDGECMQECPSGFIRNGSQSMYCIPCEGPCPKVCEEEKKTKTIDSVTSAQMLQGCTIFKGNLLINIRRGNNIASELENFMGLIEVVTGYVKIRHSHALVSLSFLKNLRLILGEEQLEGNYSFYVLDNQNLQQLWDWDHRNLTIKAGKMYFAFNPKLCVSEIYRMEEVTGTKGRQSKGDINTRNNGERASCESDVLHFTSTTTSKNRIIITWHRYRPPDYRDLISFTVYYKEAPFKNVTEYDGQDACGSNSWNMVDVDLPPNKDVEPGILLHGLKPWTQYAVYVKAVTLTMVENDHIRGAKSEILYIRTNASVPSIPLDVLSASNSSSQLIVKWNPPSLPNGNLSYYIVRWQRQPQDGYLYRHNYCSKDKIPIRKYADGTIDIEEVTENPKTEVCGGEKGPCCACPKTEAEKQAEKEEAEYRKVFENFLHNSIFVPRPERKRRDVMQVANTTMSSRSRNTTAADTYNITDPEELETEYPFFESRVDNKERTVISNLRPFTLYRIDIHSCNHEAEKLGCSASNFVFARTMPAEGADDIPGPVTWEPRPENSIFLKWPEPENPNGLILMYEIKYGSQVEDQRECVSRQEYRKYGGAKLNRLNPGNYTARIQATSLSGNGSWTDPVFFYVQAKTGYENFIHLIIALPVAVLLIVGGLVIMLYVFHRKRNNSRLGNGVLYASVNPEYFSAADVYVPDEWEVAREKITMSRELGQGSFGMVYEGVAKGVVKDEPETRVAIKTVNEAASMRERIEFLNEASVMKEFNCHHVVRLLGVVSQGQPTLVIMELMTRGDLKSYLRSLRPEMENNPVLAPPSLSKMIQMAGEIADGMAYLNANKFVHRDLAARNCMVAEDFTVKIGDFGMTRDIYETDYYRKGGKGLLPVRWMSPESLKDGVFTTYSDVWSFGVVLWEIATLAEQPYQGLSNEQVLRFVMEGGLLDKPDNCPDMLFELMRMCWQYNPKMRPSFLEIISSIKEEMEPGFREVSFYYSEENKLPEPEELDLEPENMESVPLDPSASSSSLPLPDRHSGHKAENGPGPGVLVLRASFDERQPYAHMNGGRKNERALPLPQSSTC
T7 sequence (P16234 24-1089): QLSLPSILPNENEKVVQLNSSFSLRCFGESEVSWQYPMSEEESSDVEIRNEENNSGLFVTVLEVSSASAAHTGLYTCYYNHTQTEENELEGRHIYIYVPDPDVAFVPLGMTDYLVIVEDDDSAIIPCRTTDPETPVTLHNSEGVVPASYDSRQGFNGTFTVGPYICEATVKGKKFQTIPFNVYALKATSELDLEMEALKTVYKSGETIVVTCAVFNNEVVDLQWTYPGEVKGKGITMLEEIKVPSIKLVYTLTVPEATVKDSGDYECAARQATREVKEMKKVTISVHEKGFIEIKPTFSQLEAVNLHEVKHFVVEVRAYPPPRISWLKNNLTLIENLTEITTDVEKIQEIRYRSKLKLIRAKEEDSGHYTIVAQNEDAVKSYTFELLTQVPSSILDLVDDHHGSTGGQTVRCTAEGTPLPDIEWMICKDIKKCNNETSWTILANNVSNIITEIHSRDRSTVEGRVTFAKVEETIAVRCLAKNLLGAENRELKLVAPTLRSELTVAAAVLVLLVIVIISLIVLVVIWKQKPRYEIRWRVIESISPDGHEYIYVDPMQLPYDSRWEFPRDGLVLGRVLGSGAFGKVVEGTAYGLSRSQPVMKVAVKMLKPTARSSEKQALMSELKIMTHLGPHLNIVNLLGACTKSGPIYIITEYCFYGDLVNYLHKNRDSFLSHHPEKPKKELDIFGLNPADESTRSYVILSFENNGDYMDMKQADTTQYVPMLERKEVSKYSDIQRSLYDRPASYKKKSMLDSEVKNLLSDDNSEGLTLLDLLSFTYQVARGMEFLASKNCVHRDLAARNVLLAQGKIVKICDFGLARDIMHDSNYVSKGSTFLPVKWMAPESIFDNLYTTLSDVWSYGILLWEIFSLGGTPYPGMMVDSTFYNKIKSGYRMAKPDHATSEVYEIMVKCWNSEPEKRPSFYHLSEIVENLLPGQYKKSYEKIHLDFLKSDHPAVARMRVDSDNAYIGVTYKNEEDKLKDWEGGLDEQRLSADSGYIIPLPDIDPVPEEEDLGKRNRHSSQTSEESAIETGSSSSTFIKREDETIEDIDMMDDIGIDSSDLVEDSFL
T5 sequence (P06213 28-1382): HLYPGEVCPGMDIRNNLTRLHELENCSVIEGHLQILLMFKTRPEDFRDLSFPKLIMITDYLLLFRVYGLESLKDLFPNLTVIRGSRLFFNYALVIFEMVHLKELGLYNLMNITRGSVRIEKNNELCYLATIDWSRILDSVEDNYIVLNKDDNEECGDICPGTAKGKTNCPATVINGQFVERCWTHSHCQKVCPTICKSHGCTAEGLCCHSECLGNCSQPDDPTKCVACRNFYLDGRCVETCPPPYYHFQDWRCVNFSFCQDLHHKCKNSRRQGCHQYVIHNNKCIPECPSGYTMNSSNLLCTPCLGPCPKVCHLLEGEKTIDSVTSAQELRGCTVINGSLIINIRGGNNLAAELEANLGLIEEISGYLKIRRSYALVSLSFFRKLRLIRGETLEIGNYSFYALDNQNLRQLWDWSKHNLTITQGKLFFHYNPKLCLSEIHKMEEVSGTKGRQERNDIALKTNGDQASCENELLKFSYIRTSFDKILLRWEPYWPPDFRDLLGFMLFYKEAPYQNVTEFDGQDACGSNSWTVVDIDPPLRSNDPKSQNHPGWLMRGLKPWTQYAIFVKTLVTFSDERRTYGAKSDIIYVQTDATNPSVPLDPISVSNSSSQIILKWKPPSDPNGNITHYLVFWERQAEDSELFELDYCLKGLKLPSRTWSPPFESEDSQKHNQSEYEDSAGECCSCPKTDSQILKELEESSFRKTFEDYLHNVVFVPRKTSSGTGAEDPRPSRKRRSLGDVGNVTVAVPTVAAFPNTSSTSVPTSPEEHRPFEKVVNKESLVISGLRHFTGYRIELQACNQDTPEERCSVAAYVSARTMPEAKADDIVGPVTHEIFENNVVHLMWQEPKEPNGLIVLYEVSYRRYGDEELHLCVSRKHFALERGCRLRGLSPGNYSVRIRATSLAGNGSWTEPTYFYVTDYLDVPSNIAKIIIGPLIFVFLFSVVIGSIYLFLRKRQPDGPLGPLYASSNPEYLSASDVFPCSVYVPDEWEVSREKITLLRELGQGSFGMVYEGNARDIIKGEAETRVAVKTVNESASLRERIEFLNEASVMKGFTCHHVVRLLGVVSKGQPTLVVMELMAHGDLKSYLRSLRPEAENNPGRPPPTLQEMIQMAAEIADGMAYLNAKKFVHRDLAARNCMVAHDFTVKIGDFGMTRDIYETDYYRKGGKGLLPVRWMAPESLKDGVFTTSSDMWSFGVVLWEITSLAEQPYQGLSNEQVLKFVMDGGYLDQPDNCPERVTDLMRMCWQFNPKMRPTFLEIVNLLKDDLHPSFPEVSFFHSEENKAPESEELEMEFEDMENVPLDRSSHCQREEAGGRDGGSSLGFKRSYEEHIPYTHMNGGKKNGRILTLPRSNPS

Compound | melting point | inhibition at 0.01 µM (EGFR) | inhibition at 0.01 µM (HER-2) | inhibition at 0.01 µM (HER-4) | inhibition at 0.01 µM (IGF1R) | inhibition at 0.01 µM (InsR) | inhibition at 0.01 µM (KDR (VEGFR2)) | inhibition at 0.01 µM (PDGFRa) | inhibition at 0.01 µM (PDGFRb) | inhibitory activity in relation to HER-4, in words (HER-4; 10 nM) | other results
CCOC(=O)CC[C@H](NC(=O)c1ccc(CNc2cc([N+](=O)[O-])ccc2C)cc1)C(=O)OCC [Compound 16, Diethyl (4-(((2-methyl-5-nitrophenyl)amino)methyl)benzoyl)glutamate] | 127 to 129 °C | – | – | – | – | – | – | – | – | – | –
CNC(=O)c1cc(Oc2ccc(NC(=O)c3ccc(CNc4cc([N+](=O)[O-])ccc4C)cc3)cc2)ccn1 [Compound 17, 4-{[(2-Methyl-5-nitrophenyl)amino]methyl}-N-(4-{[2-(methylcarbamoyl)pyridin-4-yl]oxy}phenyl) benzoate] | 231 to 233 °C | 0% | 0% | 0% | 0% | 49% | 0% | 0% | 0% | – | selectivity for the gene insulin receptor, in words (InsR; 10 nM, panel of eight receptor tyrosine kinases): high selectivity
Cc1ccc([N+](=O)[O-])cc1NCc1ccc(C(=O)Nc2cccc(C(F)(F)F)c2)cc1 [Compound 18, 4-{[(2-Methyl-5-nitrophenyl)amino]methyl}-N-[3-(trifluoromethyl)phenyl]benzamide] | 169 to 171 °C | 0% | 14% | 56% | 0% | 0% | 24% | 67% | 13% | comparable to imatinib | –
COC(=O)c1ccc(N)c(NC(=O)c2ccc(CNc3cc([N+](=O)[O-])ccc3C)cc2)c1 [Compound 19, Methyl 4-amino-3-[(4-{[(2-methy-5-nitrophenyl)amino]methyl}benzoyl)amino]benzoate] | 208 to 210 °C | – | – | – | – | – | – | – | – | – | IC50 [1]: 64 µM; IC50 [2]: > 100 µM; inhibition at 100 µM [3]: 10%
CNC(=O)c1cc(Oc2ccc(NCc3ccc(C(=O)Nc4cccc(C(F)(F)F)c4)cc3)cc2)ccn1 [Compound 20, 4-{[(4-{[2-(Methylcarbamoyl)pyridin-4-yl]oxy}phenyl)amino]methyl}-N-[3-(trifluoromethyl)phenyl]benzamide] | 170 to 171 °C | 56% | 0% | 57% | 18% | 0% | 48% | 77% | 28% | comparable to imatinib | –
CCOC(=O)CC[C@H](NC(=O)c1ccc(CNc2ccc(Oc3ccnc(C(=O)NC)c3)cc2)cc1)C(=O)OCC [Compound 21, Diethyl (4-(((4-((2-(methylcarbamoyl)pyridin-4-yl)oxy)phenyl)amino)methyl)benzoyl)glutamate] | 162 to 164 °C | – | – | – | – | – | – | – | – | – | –
O=C(Nc1cccc(C(F)(F)F)c1)c1ccc(CNc2nccc(-c3cccnc3)n2)cc1 [Compound 24, 4-({[4-(Pyridin-3-yl)pyrimidin-2-yl]amino}methyl)-N-[3-(trifluoromethyl)phenyl]benzamide] | 138 to 141 °C | 24% | 0% | 44% | 0% | 0% | 2% | 0% | 0% | comparable to imatinib | –
Cc1ccc([N+](=O)[O-])cc1NC(=O)c1ccc(CNc2nccc(-c3cccnc3)n2)cc1 [Compound 25, 4-({[4-(Pyridin-3-yl)pyrimidin-2-yl]amino}methyl)-N-{[(2-methyl-5-nitrophenyl) benzoate] | 175 to 176 °C | – | – | – | – | – | – | – | – | – | –
Cc1ccc(NC(=O)c2ccc(CN3CCN(C)CC3)cc2)cc1Nc1nccc(-c2cccnc2)n1 [Imatinib, reference compound] | – | 0% | 0% | 42% | 0% | 36% | 0% | 56% | 75% | – | inhibition at 100 µM [3]: 13.4%
N-(3-(4-methyl-1H-imidazol-1-yl)-5-(trifluoromethyl)phenyl)-4-(((4-(pyridin-2-yl)pyrimidin-2-yl)amino)methyl)benzamide [Compound 22] | – | – | – | – | – | – | – | – | – | comparable to imatinib | % Inhibition at 10 nM, EGFR (EGFR; 10 nM): 21%; % Inhibition at 10 nM, HER-2 (HER-2; 10 nM): 0%; % Inhibition at 10 nM, HER-4 (HER-4; 10 nM): 49%; % Inhibition at 10 nM, IGF1R (IGF1R; 10 nM): 0%; % Inhibition at 10 nM, InsR (InsR; 10 nM): 0%; % Inhibition at 10 nM, KDR (KDR (VEGFR2)): 28%; % Inhibition at 10 nM, PDGFRa (PDGFRa; 10 nM): 0%; % Inhibition at 10 nM, PDGFRb (PDGFRb; 10 nM): 0%
